Results from ChEMBL document CHEMBL5331054, “Antibacterial quaternary ammonium agents: Chemical diversity and biological mechanism” (Eur J Med Chem, 2022).
Blank lines part the entries; values can stand above or below the compound they belong to.

Legend:
Enterococcus faecalis [1] = assay: Antibacterial activity against Enterococcus faecalis assessed as reduction in bacterial cell growth; format: functional
Staphylococcus aureus [2] = assay: Antimicrobial activity against Staphylococcus aureus assessed as reduction in bacterial growth; format: functional
[3] = system: Stenotrophomonas maltophilia; assay: Antibacterial activity against Stenotrophomonas maltophilia assessed as inhibition of bacterial growth; format: functional
Staphylococcus aureus [4] = assay: Antibacterial activity against Staphylococcus aureus assessed as bacterial growth inhibition measured after 24 hrs by micro-broth dilution method; format: functional
Pseudomonas aeruginosa [5] = assay: Antibacterial activity against Pseudomonas aeruginosa ATCC 9027 assessed as reduction in bacterial growth incubated for 24 hrs by micro-dilution method; format: functional
Staphylococcus aureus [6] = assay: Antibacterial activity against Staphylococcus aureus ATCC 25923 assessed as reduction in bacterial growth incubated for 24 hrs by micro-dilution method; format: functional
Escherichia coli [7] = assay: Antibacterial activity against Escherichia coli ATCC 25922 assessed as reduction in bacterial growth incubated for 24 hrs by micro-dilution method; format: functional
Staphylococcus aureus [8] = assay: Antibacterial activity against methicillin-resistant Staphylococcus aureus assessed as bacterial growth inhibition measured after 16 hrs by microplate reader assay; format: functional
[9] = system: Staphylococcus epidermidis; assay: Antibacterial activity against methicillin-resistant Staphylococcus epidermidis assessed as bacterial growth inhibition measured after 16 hrs by microplate reader assay; format: functional
Enterococcus faecium = assay: Antibacterial activity against vancomycin-resistant Enterococcus faecium 700221 assessed as reduction in bacterial growth inhibition measured after 16 hrs by microplate reader assay; format: functional
Staphylococcus aureus [10] = assay: Antibacterial activity against Staphylococcus aureus ATCC 700699 assessed as reduction in bacterial growth inhibition incubated for 24 hrs by microbroth-dilution method; format: functional
Staphylococcus aureus [11] = assay: Antibacterial activity against methicillin-resistant Staphylococcus aureus assessed as bacterial growth inhibition; format: functional
Staphylococcus aureus [12] = assay: Antibacterial activity against methicillin- resistant Staphylococcus aureus assessed as bacterial growth inhibition incubated for 24 hrs; format: functional
Escherichia coli [13] = assay: Antibacterial activity against Escherichia coli assessed as bacterial growth inhibition incubated for 72 hrs by microdilution method; format: functional; settings: Escherichia coli, 72 h, read-out: MIC
Enterococcus faecalis [14] = assay: Antibacterial activity against Enterococcus faecalis assessed as bacterial growth inhibition incubated for 72 hrs by microdilution method; format: functional
Pseudomonas aeruginosa [15] = assay: Antibacterial activity against Pseudomonas aeruginosa assessed as bacterial growth inhibition incubated for 72 hrs by microdilution method; format: functional; settings: Pseudomonas aeruginosa, 72 h, read-out: MIC
Staphylococcus aureus [16] = assay: Antibacterial activity against Staphylococcus aureus assessed as bacterial growth inhibition incubated for 72 hrs by microdilution assay; format: functional, organism-based; settings: Staphylococcus aureus; time 72 hrs
Staphylococcus aureus [17] = assay: Antibacterial activity against Staphylococcus aureus […] assessed as reduction in bacterial growth inhibition measured after 24 hrs; format: functional
Staphylococcus aureus [18] = assay: Antibiofilm activity against methicillin-resistant Staphylococcus aureus assessed as inhibition of biofilm formation; format: functional
Staphylococcus aureus [19] = assay: Antibacterial activity against Staphylococcus aureus assessed as reduction in bacterial growth inhibition measured after 18 to 24 hrs by micro-broth dilution method; format: functional; settings: time 18-24 hrs
Escherichia coli [20] = assay: Antibacterial activity against Escherichia coli assessed as log reduction in bacterial load measured after 5 mins; format: functional
Staphylococcus aureus [21] = assay: Antibacterial activity against Staphylococcus aureus assessed as log reduction in bacterial load measured after 5 mins; format: functional
Staphylococcus aureus [22] = assay: Antibiofilm activity against methicillin-resistant Staphylococcus aureus SH1000 assessed as reduction in bacterial growth; format: functional
Staphylococcus aureus [23] = assay: Antimicrobial activity against community acquired methicillin-resistant Staphylococcus aureus SH1000; format: functional
Klebsiella pneumoniae = assay: Antibacterial activity against Klebsiella pneumoniae assessed as reduction in bacterial growth; format: functional
Pseudomonas aeruginosa [24] = assay: Antibacterial activity against Pseudomonas aeruginosa assessed as inhibition of bacterial cell growth; format: functional
Acinetobacter baumannii = assay: Antibacterial activity against Acinetobacter baumannii assessed as inhibition of bacterial cell growth; format: functional
Escherichia coli [25] = assay: Antibacterial activity against Escherichia coli assessed as reduction bacterial cell growth; format: functional

Structure (SMILES): O=C(C[n+]1cc(-c2ccc(Cl)c(Cl)c2)n2c1CCC2)Nc1ccc(Oc2ccccc2)cc1
MIC (Staphylococcus aureus [4]): 4 µM

Structure (SMILES): CCCCCCCCCCCCCCCCn1cc[n+](Cc2cccc(F)c2)c1C
MIC (Staphylococcus aureus [8]): 1.17 µM
MIC [9]: 1.17 µM
MIC (Enterococcus faecium): 1.17 µM

Structure (SMILES): CCCCCCCCCC[N+](C)(C)CCCCCCCCCC [DIDECYLDIMETHYLAMMONIUM CHLORIDE]
MIC (Staphylococcus aureus [11]): 4 µM
MIC (Staphylococcus aureus [12]): 1 µM

Structure (SMILES): CCCCCCCCCCCC[N+](C)(C)CCCN(C)C
MIC (Staphylococcus aureus [11]): 8 µM
MIC (Staphylococcus aureus [12]): 4 µM

Structure (SMILES): CCCCCCCCCCCC[N+](C)(C)CCN(C)CC[N+](C)(C)CCCCCCCCCCCC
MIC (Escherichia coli [13]): 1 µM
MIC (Enterococcus faecalis [14]): 2 µM
MIC (Pseudomonas aeruginosa [15]): 4 µM
MIC (Staphylococcus aureus [18]): 1 µM
MIC (Staphylococcus aureus [16]): 1 µM

Structure (SMILES): CC1(C)C(=O)N(CCCCCCCCCCCC[n+]2ccccc2)C(=O)N1Cl.[Cl-]
log(activity) (Escherichia coli [20]): 2.16
log(activity) (Staphylococcus aureus [21]): 6.62

Structure (SMILES): C=CC[N+](CCC[N+](C)(C)CCCCCCCCCC)(CCC[N+](C)(C)CCCCCCCCCC)CCC[N+](C)(C)CCCCCCCCCC.[Br-].[Br-].[Br-].[Br-]
MBEC (Staphylococcus aureus [22]): 25 µM
MIC (Staphylococcus aureus [23]): 0.25 µM

Structure (SMILES): CCCCCCCCCCC[n+]1cccc(Oc2ccc(Oc3ccc[n+](CCCCCCCCCCC)c3)cc2)c1.[Br-].[Br-]
MIC (Staphylococcus aureus [11]): < 0.25 µg/mL

Structure (SMILES): CCCCCCCCCCC[n+]1cccc(Oc2cccc(Oc3ccc[n+](CCCCCCCCCCC)c3)c2)c1.[Br-].[Br-]
MIC (Klebsiella pneumoniae): < 0.25 µg/mL
MIC (Pseudomonas aeruginosa [24]): < 0.25 µg/mL
MIC (Staphylococcus aureus [11]): < 0.25 µg/mL
MIC (Acinetobacter baumannii): < 0.25 µg/mL
MIC (Escherichia coli [25]): < 0.25 µg/mL

Results, then the compound that gave them:

MIC (Enterococcus faecalis [1]): 4 µg/mL
MIC (Staphylococcus aureus [2]): 0.5 µg/mL
MIC [3]: 1 µg/mL
Structure (SMILES): CCCCCCCC[N+](C)(C)CCOc1ccc(OCC[N+](C)(C)CCCCCCCC)cc1.[Br-].[Br-]

MIC (Pseudomonas aeruginosa [5]): 0.625 µg/mL
MIC (Staphylococcus aureus [6]): 0.625 µg/mL
MIC (Escherichia coli [7]): 0.625 µg/mL
Structure (SMILES): CC1(C)[C@@H]2CC[C@H](CC[N+](C)(C)CC[C@H]3CC[C@@H]4C[C@H]3C4(C)C)[C@H]1C2.[Cl-]

MIC (Staphylococcus aureus [10]): 1 µg/mL
Structure (SMILES): CCCCCCCCCCCCCCCCCC[N+](C)(C)Cc1cnc(C)c(OC(C)=O)c1C.[Cl-]

MIC (Enterococcus faecalis [1]): 128 µg/mL
MIC (Staphylococcus aureus [2]): 32 µg/mL
MIC [3]: 64 µg/mL
Structure (SMILES): CCCCCC[N+](C)(C)CCOc1ccc(OCC[N+](C)(C)CCCCCC)cc1.[Br-].[Br-]

MIC (Escherichia coli [13]): 1 µM
MIC (Enterococcus faecalis [14]): 1 µM
MIC (Pseudomonas aeruginosa [15]): 4 µM
MIC (Staphylococcus aureus [16]): 1 µM
Structure (SMILES): CCCCCCCCCCCC[N+](C)(C)CCCCC[N+](C)(C)CCCCCCCCCCCC

MIC (Staphylococcus aureus [17]): 3.12 µM
Structure (SMILES): CCOC(=O)c1c[n+](C(C)C)c2cc3c(cc2c1Nc1ccc(OCc2ccccc2)cc1)OCO3

MIC (Escherichia coli [13]): 2 µM
MIC (Enterococcus faecalis [14]): 1 µM
MIC (Pseudomonas aeruginosa [15]): 4 µM
MIC (Staphylococcus aureus [16]): 1 µM
Structure (SMILES): CCCCCCCCCCCC[N+](C)(C)CC[N+](C)(C)CCCCCCCCCCCC

MIC (Escherichia coli [7]): 5 µg/mL
Structure (SMILES): CC1(C)[C@@H]2CC[C@H](CC[N+](C)(C)CC[C@H]3CC[C@@H]4C[C@H]3C4(C)C)[C@H]1C2.[I-]

MIC (Escherichia coli [13]): 8 µM
MIC (Enterococcus faecalis [14]): 1 µM
MIC (Pseudomonas aeruginosa [15]): 32 µM
MIC (Staphylococcus aureus [16]): 1 µM
Structure (SMILES): CCCCCCCCCCCC[N+](C)(C)CCCCCCCCCCCC

MIC (Staphylococcus aureus [4]): 6.1 µM
Structure (SMILES): CCCCCCCCCC[N+](C)(C)Cc1ccc(C[N+](C)(C)CCCCCCCCCC)cc1

MIC (Staphylococcus aureus [19]): 15.6 µM
Structure (SMILES): C[N+](C)(C)CCNC(=O)[C@H](Cc1c[nH]c2ccccc12)NC(=O)c1cc(Cl)ccc1NC(=O)c1ccc2ccccc2c1

MIC (Staphylococcus aureus [2]): 0.25 µM
Structure (SMILES): CCCCCCCCCCCC[N+](C)(C)c1ccc(C(c2ccc(N(C)C)cc2)c2ccc(N(C)C)cc2)cc1

MIC (Enterococcus faecalis [1]): 0.25 µg/mL
MIC (Staphylococcus aureus [2]): 0.5 µg/mL
MIC [3]: 0.5 µg/mL
Structure (SMILES): CCCCCCCCCC[N+](C)(C)CCOc1ccc(OCC[N+](C)(C)CCCCCCCCCC)cc1.[Br-].[Br-]
